Test results from US12083115B2, “Methods for treating neurological symptoms associated with lysosomal storage diseases” (Genzyme Corporation, priority 2020, dated 2024).
Read-outs that look alike come from different tables or passages of the source.

How the values were obtained:
Assay type in all cases: in vivo, human
[1] = Study 1 Part 1: ascending single-dose PK in healthy men; conditions: for half-life / Tmax / AUC(0-inf) / AUC(0-t) / Cmax / Vd/F: male, human, plasma
Description: Study 1 was a 2-part single-center trial in healthy adult male volunteers.
Part 1 of the study enrolled and randomized 55 healthy men (placebo, n=14; 2-, 5-, 15, 25-, 50, and 100-mg doses, n=6 each; 150-mg dose, n=5). Eight healthy men participated in Part 2. […]

[2] = system: adult patients with Gaucher disease Type 3; assay: Clinical study in GD-3 patients: ataxia, SARA scale; set-up: key to SARA Cumulative Score, Average Score excluding Patient 4 / SARA Cumulative Score: SARA, eight ataxia attributes summed, 0-40 scale; key to mean improvement in SARA score: change in SARA score (0-40 scale)
Experimental: (§1) The endpoint assessments are related to safety, CSF biomarkers, pharmacokinetics/pharmacodynamics, systemic disease, and neuroimaging and neurological function (CNS/neurological manifestations).
(§2) During the study patients were evaluated for safety and tolerability, CSF and plasma biomarkers (glucosylceramide, GL-1; glucosylsphingosine, lyso-GL1), pharmacokinetics, markers for systemic disease (spleen and liver volume measured by magnetic resonance imaging (MRI), platelet count, hemoglobin levels), indicia of interstitial lung disease (high resolution pulmonary computed tomography (CT)), and horizontal saccadic eye movement. In addition, exploratory biomarkers were quantified in CSF of GD3 patients: ceramide (the precursor of GL-1), chitotriosidase (CHITO), GM3, and GPNMB. Symptoms of ataxia were measured using the SARA scale, neurological symptoms were measured using the trail making test, and functional MRI was used to assess neural connectivity in the brain.
The degree of ataxia at baseline and throughout the study was evaluated by the Scale for Assessment and Rating of Ataxia (SARA; Schmitz-Hubsch et al. [2006]), which assesses eight distinct attributes of cerebellar ataxia on a scale of 0-40. The eight attributes are gait, stance, sitting, speech disturbance, finger chase, nose-finger test, fast alternate hand movement, and heel-shin slide. SARA ataxia scoring results for all six patients is presented in the chart below: […]

glucosylceramide (GL-1) = assay: Clinical study in GD-3 patients: GL-1 in plasma and CSF; conditions: for GL-1 (% change): 52-weeks compared to baseline; for GL-1 concentration, 52-weeks (mean) / GL-1 concentration, 52-weeks: 15 mg/day + imiglucerase; for GL-1 concentration, 52-weeks: all six patients
Experimental: as §1, §2
Over all six GD3 patients, plasma and CSF GL-1 and lyso-GL-1 concentrations were as follows:
At Week 52, the CSF lyso-GL1 concentrations for Patient 5 were above the upper limit of quantification (ULOQ; >100 pg/mL), and biomarker results for CSF lyso-GL1 were therefore imputed using the exact ULOQ values. […] Mean results for the other study subjects were as follows (N=10; Patient 5 excluded): […]

[3] = Patient 5 (reduced Compound 2 exposure), Week 52 compared to baseline

CC(C)(NC(=O)O[C@@H]1CN2CCC1CC2)c1csc(-c2ccc(F)cc2)n1 [Compound 2, (S)-quinuclidin-3-yl 2-(2-(4-fluorophenyl)thiazol-4-yl)propan-2-ylcarbamate]
half-life ([1]; oral, 25 mg, 25 mg single dose, N = 6, read-out: t1/2, Mean (SD) (converted)): 30.2 h | Tmax ([1]; oral, 50 mg single dose, N = 6, read-out: tmax, median): 4 h | AUC(0-inf) ([1]; oral, 50 mg, 50 mg single dose, N = 6, read-out: AUCinf, Geometric mean (CV)): 6800 ng·h/mL | AUC(0-inf) ([1]; oral, 50 mg, 50 mg single dose, N = 6, read-out: AUCinf, Mean (SD)): 7130 ng·h/mL | AUC(0-t) ([1]; oral, 50 mg, 50 mg single dose, N = 6, read-out: AUClast, Geometric mean (CV)): 6070 ng·h/mL | AUC(0-t) ([1]; oral, 50 mg, 50 mg single dose, N = 6, read-out: AUClast, Mean (SD)): 6310 ng·h/mL | Cmax ([1]; oral, 50 mg, 50 mg single dose, N = 6, read-out: Cmax, Geometric mean (CV)): 173 ng/mL | Cmax ([1]; oral, 50 mg, 50 mg single dose, N = 6, read-out: Cmax, Mean (SD)): 181 ng/mL | Vd/F ([1]; oral, 50 mg, 50 mg single dose, N = 6, read-out: Vss/F, Geometric mean (CV)): 232 L | Vd/F ([1]; oral, 50 mg, 50 mg single dose, N = 6, read-out: Vss/F, Mean (SD)): 239 L | half-life ([1]; oral, 50 mg, 50 mg single dose, N = 6, read-out: t1/2, Geometric mean (CV) (converted)): 28.5 h | half-life ([1]; oral, 50 mg, 50 mg single dose, N = 6, read-out: t1/2, Mean (SD) (converted)): 28.9 h | AUC(0-inf) ([1]; oral, 100 mg, 100 mg single dose, N = 6, read-out: AUCinf, Geometric mean (CV)): 14100 ng·h/mL | AUC(0-inf) ([1]; oral, 100 mg, 100 mg single dose, N = 6, read-out: AUCinf, Mean (SD)): 14400 ng·h/mL | AUC(0-t) ([1]; oral, 100 mg, 100 mg single dose, N = 6, read-out: AUClast, Geometric mean (CV)): 12800 ng·h/mL | AUC(0-t) ([1]; oral, 100 mg, 100 mg single dose, N = 6, read-out: AUClast, Mean (SD)): 13000 ng·h/mL | Cmax ([1]; oral, 100 mg, 100 mg single dose, N = 6, read-out: Cmax, Geometric mean (CV)): 372 ng/mL | Cmax ([1]; oral, 100 mg, 100 mg single dose, N = 6, read-out: Cmax, Mean (SD)): 374 ng/mL | Vd/F ([1]; oral, 100 mg, 100 mg single dose, N = 6, read-out: Vss/F, Geometric mean (CV)): 212 L | Vd/F ([1]; oral, 100 mg, 100 mg single dose, N = 6, read-out: Vss/F, Mean (SD)): 213 L | half-life ([1]; oral, 100 mg, 100 mg single dose, N = 6, read-out: t1/2, Geometric mean (CV) (converted)): 27.6 h | half-life ([1]; oral, 100 mg, 100 mg single dose, N = 6, read-out: t1/2, Mean (SD) (converted)): 27.8 h | Tmax ([1]; oral, 150 mg single dose, N = 5, read-out: tmax, median): 4 h | AUC(0-inf) ([1]; oral, 150 mg, 150 mg single dose, N = 5, read-out: AUCinf, Geometric mean (CV)): 19900 ng·h/mL | AUC(0-inf) ([1]; oral, 150 mg, 150 mg single dose, N = 5, read-out: AUCinf, Mean (SD)): 20600 ng·h/mL | AUC(0-t) ([1]; oral, 150 mg, 150 mg single dose, N = 5, read-out: AUClast, Geometric mean (CV)): 18000 ng·h/mL | AUC(0-t) ([1]; oral, 150 mg, 150 mg single dose, N = 5, read-out: AUClast, Mean (SD)): 18600 ng·h/mL | Cmax ([1]; oral, 150 mg, 150 mg single dose, N = 5, read-out: Cmax, Geometric mean (CV)): 520 ng/mL | Cmax ([1]; oral, 150 mg, 150 mg single dose, N = 5, read-out: Cmax, Mean (SD)): 529 ng/mL | Vd/F ([1]; oral, 150 mg, 150 mg single dose, N = 5, read-out: Vss/F, Geometric mean (CV)): 223 L | Vd/F ([1]; oral, 150 mg, 150 mg single dose, N = 5, read-out: Vss/F, Mean (SD)): 228 L | half-life ([1]; oral, 150 mg, 150 mg single dose, N = 5, read-out: t1/2, Geometric mean (CV) (converted)): 26.4 h | half-life ([1]; oral, 150 mg, 150 mg single dose, N = 5, read-out: t1/2, Mean (SD) (converted)): 26.9 h | half-life ([1]; po, single oral doses of 2 to 150 mg, read-out: geometric mean t1/2 (converted)): 28.9 h | median time of Cmax ([1]; single oral doses of 2 to 150 mg): 3 to 5.5 h | mean SARA Score ([2]; Excluding Patient 4, by Week 26, further slightly improved by Week 52): significantly decreased | SARA Cumulative Score ([2]; Patient 1, Week 52, screening 3.0, 15 mg/day + imiglucerase): 0.0 | SARA Cumulative Score ([2]; Patient 4, Week 52, screening 3.0, 15 mg/day + imiglucerase): 4.5 | SARA Cumulative Score ([2]; Patient 5 (low Compound 2 exposure), Week 26, screening 0.5): 0.0 | SARA Cumulative Score ([2]; Patient 5 (low Compound 2 exposure), Week 52, screening 0.5): 0.0 | mean improvement in SARA score ([2]; Week 52, Excluding Patient 5 (SD=3.2)): −0.9 | SARA Cumulative Score, Average Score excluding Patient 4 ([2]; Week 52, screening 2.80): 0.90 | GL-1 (% change) (glucosylceramide (GL-1); CSF Concentration, N = 6, 15 mg/day + imiglucerase): −55.4% | GL-1 (% change) (glucosylceramide (GL-1); CSF Concentration, N=10, Patient 5 excluded): −79% ± 12.1% | GL-1 concentration, 52-weeks (mean) (glucosylceramide (GL-1); CSF, N=10, Patient 5 excluded, Baseline 7.11 ng/ml): 1.38 ng/mL | GL-1 concentration, 52-weeks (glucosylceramide (GL-1); CSF, Baseline 6.36 ng/ml): 2.48 ng/mL | increase in CSF GL1 (glucosylceramide (GL-1); [3]): ~37% | increase in plasma GL1 (glucosylceramide (GL-1); [3]): ~14% | GL-1 (% change) (glucosylceramide (GL-1); Plasma Concentration, N = 6, 15 mg/day + imiglucerase): −71.6% | GL-1 (% change) (glucosylceramide (GL-1); Plasma Concentration, N=10, Patient 5 excluded): −77% ± 11.7% | GL-1 concentration, 52-weeks (mean) (glucosylceramide (GL-1); Plasma, N=10, Patient 5 excluded, Baseline 5.66 μg/mL): 1280 ng/mL | GL-1 concentration, 52-weeks (glucosylceramide (GL-1); Plasma, Baseline 6.21 μg/mL): 1590 ng/mL
